Converted amounts (≈) assume the structure as drawn.
Legend:
[1] = test system: human mixed lymphocyte reaction (MLR); assay: human mixed lymphocyte reaction (MLR) activity; type: cell-based; details: read-out: MLR activity(IC50, mg/ml)
Description: The measurement of the human MLR activity of the macrocyclic lactones of this invention carried out by standard procedures which are described in the literature (D. P. Dubey et al., in Manual of Clinical Laboratory Immunology, 3rd Ed., pp847-858, 1986). The cytotoxicities of the macrocyclic lactones were measured by the standard procedure (T. Mosmann, J., J. Immunol. Methods, 65, 55-63, 1983). The concentration of their cytotoxicities is several ten times higher than that of their MLR activities.

Candida albicans = assay: anti-Candida albicans activity, agar plate dilution method with paper disk, inhibition zone; type: cell-based; details: Concentration 40 mg/disk; paper disk 8 mm; agar medium for neomycin assay
Description: The paper disk (8 mm, Advantic) and agar medium for neomycin assay (Difco) were used in the tests. As the novel macrocyclic lactones inhibit the growth of Candida albicans, they have an antifungal activity.

IC50 [1]: 0.01 µg/mL (≈ 0.0109 µM)
Compound: CO[C@H]1C[C@@H]2CC[C@@H](C)[C@@](O)(O2)C(=O)C(=O)N2CCCC[C@H]2C(=O)O[C@H]([C@H](C)C[C@@H]2CC[C@@H](O)[C@H](OC)C2)CC(=O)[C@H](C)/C=C(\C)[C@@H](O)[C@@H](OC)C(=O)[C@H](C)C[C@H](C)/C=C/C=C/C=C/1C [Rapamycin, rapamycin]
The diameter of inhibition zone (mm) (Candida albicans): 25 mm

From patent EP0627009B1, “MACROCYCLIC LACTONES AND A PRODUCTIVE STRAIN THEREOF” (PFIZER INC., priority 1992, dated 1993)
